Measured values as given in patent US20250250265A1, “BENZOTHIAZOLE-PHENYLSULFONYL-PIPERIDINE ANALOGS AS ACTIVATORS OF NACYLPHOSPHATIDYLETHANOLAMINE HYDROLYZING PHOSPHOLIPASE D” (priority 2022, published 2025).
“Also recorded” adds a separate entry of the source.

Columns and labels:
[1] = test system: bone marrow-derived macrophages (BMDM); experiment: Efferocytosis assay with bone marrow-derived macrophages and apoptotic Jurkat cells; type: cell-based, mouse; details: 10 μM, 6 h before assay
Protocol: Male C57BL6/j wild-type or Napepld^−/− mice were euthanized with isoflurane and hind legs were removed. Marrow was flushed from femurs and tibias using DMEM containing 4.5 g/L glucose and a 26-gauge needle. Cell suspensions were passed over a 40-μm filter, centrifuged at 500×g, and resuspended in 50 ml of DMEM containing 4.5 g/L glucose, 20% L-cell conditioned media, 10% heat-inactivated FBS, and 1% penicillin/streptomycin. 10 ml of cell suspension was plated into each of five 100-mm dishes and incubated for four days at 37° C. and 5% CO2. On day four, non-adherent cells and debris were aspirated from the plates and replaced with fresh media. After 7 days of differentiation, cells were harvested for use in experiments.
Assays were performed according to previously described protocols. See e.g., Doran et al. J. Clin. Invest. 127(11): 4075-4089 (2017); Proto et al., Immunity 49(4): 666-677 (2018). Bone marrow-derived macrophages were seeded at 0.25×10^6 cells/well in a non-tissue culture-treated 24-well plate and allowed to adhere overnight. Macrophages were treated with various compounds at a final concentration of 10 μM or DMSO as a vehicle for 6 hours prior to each experiment. Jurkat cells were exposed to UV light (254 nm) for 5 minutes to induce apoptosis and then incubated in a 37° C. incubator with 5% CO2 for 2 hours. Surveillance staining of these cells routinely yielded approximately 80-90% apoptosis (Annexin V+) using this method. Apoptotic Jurkat cells were labeled with either CellVue Claret (Millipore Sigma) or Cell Trace Violet (Invitrogen) per the manufacturer's instructions. After staining, cells were resuspended in macrophage medium at a density of […] and 500 μL of this suspension was added to the drug-containing media on the macrophages to achieve a cell ratio of 3:1 Jurkats: macrophages. After incubating for 45 minutes at 37° C. and 5% CO2, the medium was aspirated, and the macrophages were gently washed twice with PBS to remove unbound apoptotic cells. Macrophages were then removed from the plate using Cell Stripper (Sigma), washed, resuspended in staining buffer consisting of 2% FBS in PBS with 2 mM EDTA, and blocked with anti-mouse CD16/32 antibodies for 15 minutes on ice. After blocking, cells were pelleted and resuspended with F4/80. Cells were incubated for 45 minutes on ice in the dark, then washed and resuspended in staining buffer for analysis. Cells were analyzed using an Attune NxT cytometer (Thermo Fisher) and data were analyzed using FlowJo software to quantify the proportion of F4/80^+ macrophages that co-stained for apoptotic cells (% efferocytosis).

[2] = biological target: T1, recombinant mouse NAPE-PLD (Mus musculus, UniProt Q8BH82); experiment: In vitro competition assay (LEI-401, VU233, VU534) on recombinant mouse Nape-pld; type: biochemical
T1 construct: hexahistidine (His6) (C); made in house; host or cells: E. coli
T1 sequence (Q8BH82 1-396): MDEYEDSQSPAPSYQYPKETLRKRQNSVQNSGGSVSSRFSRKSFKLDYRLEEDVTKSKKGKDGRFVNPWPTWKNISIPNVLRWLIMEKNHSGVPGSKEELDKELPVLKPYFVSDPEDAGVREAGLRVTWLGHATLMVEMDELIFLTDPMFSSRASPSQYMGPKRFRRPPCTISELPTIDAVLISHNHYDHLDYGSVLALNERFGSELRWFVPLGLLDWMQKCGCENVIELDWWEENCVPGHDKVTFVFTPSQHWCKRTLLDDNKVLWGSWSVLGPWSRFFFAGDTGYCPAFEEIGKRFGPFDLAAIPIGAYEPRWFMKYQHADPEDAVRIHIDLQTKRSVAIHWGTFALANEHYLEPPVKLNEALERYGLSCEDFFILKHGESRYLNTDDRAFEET
Protocol: A similar in vitro fluorescence Nape-pld activity assay was used for LEI-401 and VU233 competition assays except that this assay was performed using black-walled clear-bottom 96-well plates with 3.5 μM PED-A1 and no N-palmitoyl-dioleoyl-PE used as substrate and read in a BioTek Synergy H1 plate reader with the slope of the fluorescence signal from 0-4 min (linear phase) used as the assay readout. LEI-401, VU233, and VU534 were incubated for 1 h prior to addition of PED-A1. The Michaelis-Menten study used this same assay except with graded concentration of flame-NAPE.

[3] = biological target: T2, NAPE-PLD activity of RAW264.7 macrophages (Mus musculus, UniProt Q8BH82); experiment: Cell-based NAPE-PLD activity in RAW264.7 macrophages (PED-A1 with orlistat); details: with 20 μM VU534 (FIG. 17C)
T2 construct: endogenous in cells; host or cells: RAW264.7
T2 sequence (Q8BH82 1-396): T1 sequence (Q8BH82 1-396)
Protocol: (§1) NAPE-PLD activity was measured in cells as previously described, except that FluoroBrite DMEM (Gibco A1896701) was used as media. See Zarrow et al., J. Lipid Res. 63(1): 100156 (2022). For RAW264.7 assays, PED-A1 (3.6 μM final) was used as the substrate with 10 μM orlistat added to inhibit PLA1 activity, while for HepG2 cells, flame-NAPE was used (with no orlistat added).

[4] = biological target: T3, NAPE-PLD activity of HepG2 cells (Homo sapiens, UniProt Q6IQ20); experiment: Cell-based NAPE-PLD activity in HepG2 cells (flame-NAPE); details: 10 μM
T3 construct: endogenous in cells; host or cells: HepG2
Protocol: In vitro models of the hepatic steatosis of non-alcoholic fatty liver disease (NAFLD) are well-established, with the primary method being incubation of primary human hepatocytes or hepatocyte cell lines such as HepG2, HuH7, HepaRG, with oleic acid and palmitic acid for 24 to 48 h, then measuring the resulting steatosis, lipid peroxidation, apoptosis, and inflammatory gene expression. Using flame-NAPE to measure NAPE-PLD activity in the human hepatoma HepG2 cell line, the experimental data confirmed that VU534 activated NAPE-PLD in human cells (AC50 940 nM; max % bA 155%). Bithionol (10 μM) reduced HepG2 flame-NAPE hydrolysis by >67%.
as §1

[5] = biological target: T4, NAPE-PLD activity in primary BMDMϕ (Mus musculus, UniProt Q8BH82); experiment: NAPE-PLD activity in primary bone marrow derived macrophages; type: cell-based; details: VU534 at 10 μM (FIG. 5)
T4 construct: endogenous in cells; host or cells: primary bone-marrow-derived macrophages (C57BL6/j mice)
T4 sequence (Q8BH82 1-396): T1 sequence (Q8BH82 1-396)

T3 sequence (Q6IQ20 whole entry): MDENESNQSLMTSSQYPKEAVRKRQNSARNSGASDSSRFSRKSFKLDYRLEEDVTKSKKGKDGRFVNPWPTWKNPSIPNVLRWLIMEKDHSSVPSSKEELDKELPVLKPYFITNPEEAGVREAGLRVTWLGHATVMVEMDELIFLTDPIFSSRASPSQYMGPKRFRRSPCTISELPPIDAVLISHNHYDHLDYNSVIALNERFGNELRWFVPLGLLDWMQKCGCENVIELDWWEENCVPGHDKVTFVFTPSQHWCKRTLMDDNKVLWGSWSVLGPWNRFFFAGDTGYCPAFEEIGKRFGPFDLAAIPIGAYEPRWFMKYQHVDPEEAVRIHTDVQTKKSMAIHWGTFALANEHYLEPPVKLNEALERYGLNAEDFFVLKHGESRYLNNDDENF

Q: How did the “effect on efferocytosis by wild-type BMDM” value [1] turn out when `CCC(=O)N1CCC(NC(=O)Nc2ccc(OC(F)(F)F)cc2)CC1` [TPPU, N-[1-(1-Oxopropyl)-4-piperidinyl]-N′-[4-(trifluoromethoxy)phenyl]urea, reference compound] was run?
A: Neither AUDA nor TPPU significantly enhanced efferocytosis

Q: How did the “inhibition of mouse NAPE-PLD activity at 100 μM” value ([2]; 100 μM) turn out when `O=C(NCC1CC1)c1cc(N2CC[C@H](O)C2)nc(N2CCC[C@@H](c3ccccc3)C2)n1` [LEI-401, reference compound] was run?
A: nearly complete inhibition

Q: What about the “inhibition of mouse NAPE-PLD activity” value ([2]; graded concentrations (FIG. 19C)) of the same compound?
A: inhibited mouse NAPE-PLD activity in a concentration-dependent manner

Q: How did the “effect on efferocytosis by wild-type BMDM” value [1] turn out when `O=C(O)CCCCCCCCCCCNC(=O)NC12CC3CC(CC(C3)C1)C2` [AUDA, 12-[[(tricyclo[3.3.1.13,7]dec-1-ylamino)carbonyl]amino]-dodecanoic acid, reference compound] was run?
A: Neither AUDA nor TPPU significantly enhanced efferocytosis

Q: Which results are given for `Oc1c(Cl)cc(Cl)cc1Sc1cc(Cl)cc(Cl)c1O` [bithionol, reference compound]?
A: effect on increase in RAW264.7 NAPE-PLD activity induced by 20 μM VU534 [3]: blocked in a concentration-dependent manner; also recorded: blocks increased Nape-pld activity; reduction of HepG2 flame-NAPE hydrolysis [4]: > 67%; effect on NAPE-PLD activity in primary BMDM [5]: inhibits NAPE-PLD activity; effect on efferocytosis by wild-type BMDM [1]: markedly reduced efferocytosis; effect on efferocytosis by wild-type BMDM ([1]; listed as Bith): reduced efferocytosis
